# In patent US20230043678A1, “USE OF 5-METHYLTETRAHYDROFOLATE” (priority 2019, published 2023):
# Where two headings read alike, the source gives them in different places.
# Tests used:
# [1] = tested on: transcription factors (Nkx2.5, amhc, vmhc, hand2, has2, mef2a, mef2c, bmp2b, ephrinB2, ephB4) in zebrafish embryos; test: qRT-PCR expression of transcription factors during development of zebrafish embryos (Example 4); format: in vivo; conditions: 8 mM FA
# Experimental: In order to explore an effect of folic acid on epigenetics during development of the zebrafish embryos, the zebrafish embryos at different developmental stages were collected for testing. […] A fluorescent dye SYBR Green was used in the qRT-PCR experiment. The qRT-PCR was conducted according to the instructions of an SYBR Green qPCR Master Mix kit and a detection was conducted on an ABI (HT 7900) PCR instrument. […] An expression of β-actin was used as an internal reference and relative expression levels of other genes were calculated by a ΔΔCt method.
# heart of neonatal mice = conditions: mouse, in vivo
# Experimental: (§1) 75 7-week-old female C57BL/6J mice and 25 8-week-old male C57BL/6J mice were provided by Shanghai Lingchang Biotechnology Co., Ltd. with a certificate number of SCXK (Shanghai) 2018-0003. […] The female mice were randomly divided into 5 groups according to body weight: a solvent control group, a folic acid (151.66 μg/kg) group, a folic acid (303.32 μg/kg) group, a calcium 5-methyltetrahydrofolate (converted to folic acid, 151.66 μg/kg) group and a calcium 5-methyl tetrahydrofolate (converted to folic acid, 303.32 μg/kg) group. 1.1275 unit mass of the calcium 5-methyltetrahydrofolate equaled to 1 unit mass of the folic acid.
# (§2) 15 mice were in each group and numbered by a toe clipping method. The mice were intragastrically administrated once a day on the second day after grouping. One week after the pre-administration, male and female mice were caged at a ratio of […], a vaginal plug was observed every day from the next day, and a day when the vaginal plug was seen was recorded as day 0.5 of pregnancy. After 14 days of caging, the female mice stopped the administration, the male mice were removed, and the pregnant female mice were fed alone until litter.
# In addition, 4-5 mice were randomly selected from each group and the 6-day-old small animals were subjected to cardiac echocardiography (Vevo 2100 Imaging System, VisualSonics, Toronto, ON, Canada).
# zebrafish embryos [2] = conditions: 6 mM FA
# Experimental: Transgenic zebrafish (fli-1:EGFP) were from the Model Animal Research Center of Nanjing University. Adult zebrafish aged less than 1 were used for experiment and fed at a water pH value of 7±0.2, a temperature around 28° C. and a ratio of illumination to darkness of 14 h:10 h, and with Artemia salina eggs twice a day. Three zebrafish, one female, two males, were placed in a spawning box the night before and eggs were collected the next morning. Fish eggs were placed in an embryo culture medium (prepared with 0.2 g/L of sea salt) and cultured at 28° C. […] Dead embryos were cleaned up in time. Each experiment was conducted in triplicate. […] A phenotype of malformation was observed, the number of all abnormal zebrafish where the malformation was present was recorded and a malformation rate and a rescue rate of each group were calculated. Morphological defects, a heart rate, cardiac morphology and other indicators were observed and evaluated by an SMZ745T inverted stereomicroscope.
# zebrafish embryos [3] = test: Teratogenic effect of folic acid on zebrafish embryos (Example 3); conditions: for embryo coverage: 8 hpf
# Experimental: Transgenic zebrafish (fli-1:EGFP) were from the Model Animal Research Center of Nanjing University. Adult zebrafish aged less than 1 were used for experiment and fed at a water pH value of 7±0.2, a temperature around 28° C. and a ratio of illumination to darkness of 14 h:10 h, and with Artemia salina eggs twice a day. Three zebrafish, one female, two males, were placed in a spawning box the night before and eggs were collected the next morning. Fish eggs were placed in an embryo culture medium (prepared with 0.2 g/L of sea salt) and cultured at 28° C. […] Dead embryos were cleaned up in time. A phenotype of malformation was observed, the number of all abnormal zebrafish where the malformation was present was recorded and a malformation rate and a rescue rate of each group were calculated. Morphological defects, a heart rate, cardiac morphology and other indicators were observed and evaluated by an SMZ745T inverted stereomicroscope.
# fetal rat heart = test: Effect of folic acid on fetal rat heart under pharmacological dose (Example 9); format: in vivo, rats
# Experimental: In order to investigate an effect of folic acid on fetal rat heart under pharmacological dose, 6 folic acid groups and a blank control group were divided in the experiment, the folic acid groups were divided into a folic acid group 1 (4.555 mg/kg/d), a folic acid group 2 (2.2775 mg/kg/d), a folic acid group 3 (0.911 mg/kg/d), a folic acid group 4 (0.4555 mg/kg/d), a folic acid group 5 (0.22775 mg/kg/d) and a folic acid group 6 (0.113875 mg/kg/d). The folic acid groups and the blank control group consisted of 4 pregnant mice each. The pregnant mice in the folic acid group 1 (4.555 mg/kg/d), the folic acid group 2 (2.2775 mg/kg/d) and the folic acid group 3 (0.911 mg/kg/d) were intraperitoneally injected, the pregnant mice in the folic acid group 4 (0.4555 mg/kg/d), the folic acid group 5 (0.22775 mg/kg/d) and the folic acid group 6 (0.113875 mg/kg/d) were intragastrically administrated, and the pregnant mice in the blank control group were naturally fed. After the female rats were administrated for 7 days, male and female rats were mated in a cage at a ratio of 1:1 overnight, a vaginal plug was checked the next morning, a day when the vaginal plug was found was regarded as day 0 of pregnancy, the pregnant mice were separately fed and administrated for 21 consecutive days, a fetus was obtained by cesarean section, and the number of fetal rats in each group was shown in FIG. 30. Fetal rat hearts were taken for a pathological examination and the results were as follows.
# heart of fetal mice = test: Effects of folic acid and 5-methyltetrahydrofolate on heart development of fetal/neonatal mice, histology (Example 10); conditions: mouse, in vivo
# Experimental: as §1, §2
# After the detection, thoracic and abdominal cavities of the mice were dissected, cardiac morphology and beating were observed under a stereoscopic microscope (SMZ168, Motic, Xiamen, Fujian, China), and photographs and video recordings were taken (Motic Image Plus 3.0, Motic, Xiamen, Fujian, China). The mice were sacrificed and the hearts, the livers, the kidneys and the lungs were harvested. The hearts and the livers of the neonatal mice were selected from each group and fixed with 4% paraformaldehyde, the fixed hearts and livers were embedded in paraffin, the embedded hearts and livers were sliced and the slices were stained with H&E. A half of the other tissues were immersed in RNA later for fixation and the other half were directly immersed in liquid nitrogen and frozen for a subsequent experiment.
# 1-day-old neonatal mice were sacrificed, the hearts were taken and fixed with 4% paraformaldehyde, the fixed hearts were embedded in paraffin, the embedded hearts were sliced, the slices were stained with H&E and pictures were taken under a normal microscope.
# [4] = Group 1: folic acid 4.555 mg/kg/d intraperitoneal
# [5] = Group 2: folic acid 2.2775 mg/kg/d intraperitoneal
# [6] = Group 3: folic acid 0.911 mg/kg/d intraperitoneal
# [7] = Group 4: folic acid 0.4555 mg/kg/d intragastric
# [8] = Group 5: folic acid 0.22775 mg/kg/d intragastric
# [9] = Group 6: folic acid 0.113875 mg/kg
# [10] = Group 6: folic acid 0.113875 mg/kg/d intragastric
smiles,measurement,setting,value
"Nc1nc2ncc(CNc3ccc(C(=O)N[C@@H](CCC(=O)O)C(=O)O)cc3)nc2c(=O)[nH]1 [FA, pteroylglutamic acid]",expression of bmp2b gene,[1]; 24 hpf,decreased an expression of a bmp2b gene
same,expression of mef2c gene,[1]; 24 hpf,increased an expression of a mef2c gene
same,expression of ephb4 gene,[1]; 48 hpf,inhibited
same,expression of has2 gene,[1]; 48 hpf,inhibited
same,expression of mef2c gene,[1]; 48 hpf,inhibited
same,expression of vmhc gene,[1]; 48 hpf,increased an expression of a vmhc gene
same,left ventricular internal diameter end-diastole (LVID(d)),heart of neonatal mice,significantly lower than those of other groups
same,left ventricular internal diameter end-systole (LVID(s)),heart of neonatal mice,significantly lower than those of other groups
same,10 s heart rate (48 hpf) and body length (72 hpf),zebrafish embryos [2],seriously led to bradycardia and a shortened body length of zebrafish
same,survival rate of zebrafish,zebrafish embryos [2]; 2-72 hpf,severely led to a low survival rate of zebrafish
same,embryo development,zebrafish embryos [2]; 8 hpf,delayed development of the zebrafish embryos
same,embryo phenotype,zebrafish embryos [2]; 24 hpf,led to small heads and short tails of zebrafish
same,embryo phenotype,zebrafish embryos [2]; 48 hpf,"led to pericardium edema, dyspigmentation, and intersegmental vascular hypoplasia of zebrafish"
same,pericardium edema,zebrafish embryos [2]; 48 hpf,seriously led to pericardium edema of zebrafish
same,embryo phenotype,zebrafish embryos [2]; 72 hpf,led to developmental disorders of lower intestinal network blood vessels of the zebrafish
same,embryo coverage,zebrafish embryos [3]; 2 mM FA,covered completely
same,heart shape and lower intestinal network blood vessels,"zebrafish embryos [3]; 2 mM FA, 72 hpf",normal heart shape and normal development of lower intestinal network blood vessels
same,heart shape and lower intestinal network blood vessels,"zebrafish embryos [3]; FA 4 mM or above, 72 hpf","pericardium edema malformations, atrial and ventricular elongation and developmental disorders of lower intestinal network blood vessels"
same,embryo coverage,zebrafish embryos [3]; FA groups of other concentrations (4-10 mM),not covered completely
same,survival rate of embryos,"zebrafish embryos [3]; all FA groups (2, 4, 6, 8, 10 mM)",low survival rate of embryos
same,body length of embryos,"zebrafish embryos [3]; folic acid 8 mM, 72 hpf",significantly shortened the body length of the embryos
same,embryo morphology,"zebrafish embryos [3]; folic acid, 24 hpf",developmental malformation of heads and tails of the embryos
same,embryonic heart rate,"zebrafish embryos [3]; folic acid, especially at 48 hpf",affected an embryonic heart rate
same,Atrioventricular defects/septal defects,fetal rat heart; [4],3
same,Development delay,fetal rat heart; [4],1
same,Malformation cases,fetal rat heart; [4],4
same,Malformation rate,fetal rat heart; [4],12.9%
same,Sparse myocardial trabeculae,fetal rat heart; [4],0
same,Atrioventricular defects/septal defects,fetal rat heart; [5],2
same,Development delay,fetal rat heart; [5],2
same,Malformation cases,fetal rat heart; [5],4
same,Malformation rate,fetal rat heart; [5],12.1%
same,Sparse myocardial trabeculae,fetal rat heart; [5],0
same,Atrioventricular defects/septal defects,fetal rat heart; [6],1
same,Development delay,fetal rat heart; [6],2
same,Malformation cases,fetal rat heart; [6],3
same,Malformation rate,fetal rat heart; [6],11.5%
same,Sparse myocardial trabeculae,fetal rat heart; [6],0
same,Atrioventricular defects/septal defects,fetal rat heart; [7],5
same,Development delay,fetal rat heart; [7],0
same,Malformation cases,fetal rat heart; [7],5
same,Malformation rate,fetal rat heart; [7],17.2%
same,Sparse myocardial trabeculae,fetal rat heart; [7],0
same,Atrioventricular defects/septal defects,fetal rat heart; [8],5
same,Development delay,fetal rat heart; [8],0
same,Malformation cases,fetal rat heart; [8],5
same,Malformation rate,fetal rat heart; [8],15.2%
same,Sparse myocardial trabeculae,fetal rat heart; [8],0
same,atrial walls defective (number of individuals),fetal rat heart; [9],1
same,ventricular septal defects (number of individuals),fetal rat heart; [9],3
same,Atrioventricular defects/septal defects,fetal rat heart; [10],4
same,Development delay,fetal rat heart; [10],1
same,Malformation cases,fetal rat heart; [10],4
same,Malformation rate,fetal rat heart; [10],9.5%
same,Sparse myocardial trabeculae,fetal rat heart; [10],0
same,heart slices (H&E) of 1-day-old neonatal mice,heart of fetal mice,A small block of a heart wall was defective
